Source: patent publication US7576091B2, “Thiazolo-, oxazalo and imidazolo-quinazoline compounds capable of inhibiting protein kinases” (Cyclacel Limited, priority 2003, dated 2009)

Assays:
Cyclin D1 - CDK4 = Cyclin D1 - CDK4 (Homo sapiens, UniProt P11802); assay: Cyclin D1 - CDK4 kinase inhibition assay; assay type: biochemical; conditions: [ATP] = 100 μM
Description: (§1) Compounds were tested in cyclin-CDK kinase assays and cytotoxicity assays against human tumour cell lines (72-h MTT assay) as previously described.

Cyclin H - CDK7 = Cyclin H - CDK7 (Homo sapiens, UniProt P50613); assay: Cyclin H - CDK7 kinase inhibition assay; assay type: biochemical; conditions: [ATP] = 100 μM
Cyclin H - CDK7, sequence (P50613 whole entry): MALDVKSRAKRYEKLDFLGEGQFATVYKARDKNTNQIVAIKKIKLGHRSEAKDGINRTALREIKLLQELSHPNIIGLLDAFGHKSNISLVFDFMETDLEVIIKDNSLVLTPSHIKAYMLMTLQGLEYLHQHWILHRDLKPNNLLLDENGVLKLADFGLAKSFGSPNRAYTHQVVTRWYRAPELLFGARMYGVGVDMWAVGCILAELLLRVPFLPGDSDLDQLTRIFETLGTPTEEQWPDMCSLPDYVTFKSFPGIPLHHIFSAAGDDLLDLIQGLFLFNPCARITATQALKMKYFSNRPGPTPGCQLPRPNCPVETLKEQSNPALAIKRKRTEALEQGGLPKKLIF
Cyclin H - CDK7, sequence (P51946 whole entry partner): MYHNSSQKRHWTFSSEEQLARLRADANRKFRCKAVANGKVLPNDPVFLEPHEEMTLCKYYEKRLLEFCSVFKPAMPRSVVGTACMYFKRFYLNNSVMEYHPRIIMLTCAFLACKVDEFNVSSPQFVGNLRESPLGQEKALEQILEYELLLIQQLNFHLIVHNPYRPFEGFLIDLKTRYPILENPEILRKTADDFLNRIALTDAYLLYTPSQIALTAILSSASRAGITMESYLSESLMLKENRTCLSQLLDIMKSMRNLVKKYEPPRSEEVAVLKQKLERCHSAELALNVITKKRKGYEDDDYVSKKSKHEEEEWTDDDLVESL
Description: as §1

Saos-2 = assay: 72-h MTT cytotoxicity assay, Saos-2; assay type: cell-based; conditions: Saos-2 human tumour cell line
Description: as §1

Cyclin E - CDK2 = Cyclin E - CDK2 (Homo sapiens, UniProt P24941); assay: Cyclin E - CDK2 kinase inhibition assay; assay type: biochemical; conditions: [ATP] = 100 μM
Description: as §1

Cyclin A - CDK2 = Cyclin A - CDK2 (Homo sapiens, UniProt P24941); assay: Cyclin A - CDK2 kinase inhibition assay; assay type: biochemical; conditions: [ATP] = 100 μM
Description: as §1

HT29 = assay: 72-h MTT cytotoxicity assay, HT29; assay type: cell-based; conditions: HT-29, HT29 human tumour cell line
Description: as §1

Cyclin T - CDK9 = Cyclin T - CDK9 (Homo sapiens, UniProt P50750); assay: Cyclin T - CDK9 kinase inhibition assay; assay type: biochemical; conditions: [ATP] = 100 μM
Cyclin T - CDK9, sequence (P50750 whole entry): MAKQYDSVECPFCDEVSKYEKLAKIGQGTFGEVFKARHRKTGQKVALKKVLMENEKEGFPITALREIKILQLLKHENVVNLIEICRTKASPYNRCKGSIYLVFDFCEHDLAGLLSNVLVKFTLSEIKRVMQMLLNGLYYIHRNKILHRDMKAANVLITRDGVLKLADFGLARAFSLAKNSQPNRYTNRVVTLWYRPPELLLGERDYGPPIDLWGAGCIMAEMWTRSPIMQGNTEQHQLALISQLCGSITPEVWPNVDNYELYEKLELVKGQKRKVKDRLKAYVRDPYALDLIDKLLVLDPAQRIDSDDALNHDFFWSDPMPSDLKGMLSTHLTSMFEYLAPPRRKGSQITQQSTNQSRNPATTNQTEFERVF
Cyclin T - CDK9, sequence (O60563 whole entry partner): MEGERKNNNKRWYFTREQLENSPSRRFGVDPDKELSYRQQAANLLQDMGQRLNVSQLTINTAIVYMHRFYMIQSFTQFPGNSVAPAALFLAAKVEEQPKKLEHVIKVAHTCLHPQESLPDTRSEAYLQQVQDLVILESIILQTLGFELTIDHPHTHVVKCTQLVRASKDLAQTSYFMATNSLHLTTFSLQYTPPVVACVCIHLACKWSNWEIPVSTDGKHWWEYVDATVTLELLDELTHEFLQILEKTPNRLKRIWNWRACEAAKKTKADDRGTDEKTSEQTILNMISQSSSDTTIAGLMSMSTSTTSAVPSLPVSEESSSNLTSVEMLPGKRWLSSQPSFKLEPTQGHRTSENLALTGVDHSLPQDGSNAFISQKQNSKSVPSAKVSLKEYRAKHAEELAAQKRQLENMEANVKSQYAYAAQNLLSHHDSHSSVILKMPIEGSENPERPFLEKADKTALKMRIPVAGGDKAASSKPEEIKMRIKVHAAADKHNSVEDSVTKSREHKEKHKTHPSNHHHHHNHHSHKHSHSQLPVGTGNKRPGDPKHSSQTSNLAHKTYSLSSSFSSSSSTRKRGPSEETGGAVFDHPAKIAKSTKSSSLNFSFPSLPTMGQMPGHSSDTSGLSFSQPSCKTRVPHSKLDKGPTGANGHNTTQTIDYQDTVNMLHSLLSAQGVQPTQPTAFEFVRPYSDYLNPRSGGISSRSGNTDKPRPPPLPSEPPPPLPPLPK
Description: as §1

A549 = assay: 72-h MTT cytotoxicity assay, A549; assay type: cell-based; conditions: A549 human tumour cell line
Description: as §1

Cyclin B - CDK1 = Cyclin B - CDK1 (Homo sapiens, UniProt P06493); assay: Cyclin B - CDK1 kinase inhibition assay; assay type: biochemical; conditions: [ATP] = 100 μM
Cyclin B - CDK1, sequence (P06493 whole entry): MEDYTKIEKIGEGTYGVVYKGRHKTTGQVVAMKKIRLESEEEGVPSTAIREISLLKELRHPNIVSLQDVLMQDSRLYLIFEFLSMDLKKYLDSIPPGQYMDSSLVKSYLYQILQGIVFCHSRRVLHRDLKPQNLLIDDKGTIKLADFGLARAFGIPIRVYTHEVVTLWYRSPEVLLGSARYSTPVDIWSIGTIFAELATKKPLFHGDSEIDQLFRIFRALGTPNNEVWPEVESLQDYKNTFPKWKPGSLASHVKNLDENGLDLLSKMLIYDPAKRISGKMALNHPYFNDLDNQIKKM
Cyclin B - CDK1, sequence (P14635 whole entry partner): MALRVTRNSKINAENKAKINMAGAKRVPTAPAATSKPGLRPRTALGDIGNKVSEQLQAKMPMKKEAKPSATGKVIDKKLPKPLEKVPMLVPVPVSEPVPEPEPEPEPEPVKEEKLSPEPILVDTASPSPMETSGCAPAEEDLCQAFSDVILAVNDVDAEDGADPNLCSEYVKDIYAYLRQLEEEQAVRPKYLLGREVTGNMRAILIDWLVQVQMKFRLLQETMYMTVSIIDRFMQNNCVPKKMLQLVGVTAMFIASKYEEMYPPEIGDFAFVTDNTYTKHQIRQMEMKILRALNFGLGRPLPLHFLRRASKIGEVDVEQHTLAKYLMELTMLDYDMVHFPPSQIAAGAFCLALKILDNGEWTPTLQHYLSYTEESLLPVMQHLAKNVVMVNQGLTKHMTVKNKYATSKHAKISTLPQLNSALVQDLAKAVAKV
Description: as §1

Cyclin D1 - CDK4, sequence (P11802 whole entry): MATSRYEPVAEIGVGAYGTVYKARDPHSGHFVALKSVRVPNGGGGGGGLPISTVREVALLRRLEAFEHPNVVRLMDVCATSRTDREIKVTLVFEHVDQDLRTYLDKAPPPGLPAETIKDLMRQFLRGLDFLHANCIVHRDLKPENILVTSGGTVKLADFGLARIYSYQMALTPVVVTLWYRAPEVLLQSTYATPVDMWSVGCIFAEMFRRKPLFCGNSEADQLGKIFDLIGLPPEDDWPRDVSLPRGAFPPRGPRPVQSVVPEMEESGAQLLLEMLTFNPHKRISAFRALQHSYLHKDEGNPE
Cyclin D1 - CDK4, sequence (P24385 whole entry partner): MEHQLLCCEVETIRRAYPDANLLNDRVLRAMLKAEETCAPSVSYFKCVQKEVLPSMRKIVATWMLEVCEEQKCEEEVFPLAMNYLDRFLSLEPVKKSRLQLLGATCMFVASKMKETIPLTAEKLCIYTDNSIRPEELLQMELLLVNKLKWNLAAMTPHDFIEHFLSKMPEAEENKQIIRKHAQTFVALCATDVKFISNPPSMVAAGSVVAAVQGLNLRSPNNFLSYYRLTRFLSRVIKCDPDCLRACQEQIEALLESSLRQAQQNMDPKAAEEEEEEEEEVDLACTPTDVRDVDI

Row | SMILES | IC50 (Cyclin D1 - CDK4) [µM] | IC50 (Cyclin H - CDK7) [µM] | IC50 (Cyclin E - CDK2) [µM] | IC50 (Cyclin A - CDK2) [µM] | IC50 (Cyclin T - CDK9) [µM] | IC50 (Cyclin B - CDK1) [µM] | IC50 (Saos-2) [µM] | IC50 (HT29) [µM] | IC50 (A549) [µM]
1 | Cc1nc2c(s1)-c1nc(Nc3ccc(N4CCOCC4)cc3)ncc1CC2 [Cpd 4, (2-Methyl-4,5-dihydro-thiazolo[4,5-h]quinazolin-8-yl)-(4-morpholin-4-yl-phenyl)-amine] | > 100 | 2.2 ± 0.5 | 0.4 ± 0.1 | 0.91 ± 0.59 | 0.52 ± 0.06 | 45 ± 25 | 5 ± 0.8 | 2.1 ± 2 | 3.5 ± 1.4
2 | Cc1nc2ccc3cnc(Nc4ccccc4)nc3c2s1 [Cpd 12, (2-Methyl-thiazolo[4,5-h]quinazolin-8-yl)-phenyl-amine] | 5 ± 4 | > 20 | 0.048 ± 0.013 | 4.3 ± 2.5 | – | 5.2 ± 1.3 | – | – | –
3 | Cc1nc2c(s1)-c1nc(Nc3cccc([N+](=O)[O-])c3)ncc1CC2 [Cpd 1, (2-Methyl-4,5-dihydro-thiazolo[4,5-h]quinazolin-8-yl)-(3-nitro-phenyl)-amine] | 3.8 ± 0.6 | 1.7 ± 0.5 | 0.05 ± 0.04 | 0.56 ± 0.04 | 0.008 | 1 ± 0.2 | 1.2 ± 0.7 | 1.4 ± 0.3 | 0.68
4 | Nc1nc2c(s1)-c1nc(Nc3cccc([N+](=O)[O-])c3)ncc1CC2 [Cpd 14, N^8-(3-Nitro-phenyl)-4,5-dihydro-thiazolo[4,5-h]quinazoline-2,8-diamine] | 0.25 ± 0.12 | – | 0.001 ± 0.001 | 0.022 ± 0.01 | – | 0.054 ± 0.016 | – | – | –
5 | Cc1nc2c(s1)-c1nc(Nc3ccc(Cl)nc3)ncc1CC2 [Cpd 7, (6-Chloro-pyridin-3-yl)-(2-methyl-4,5-dihydro-thiazolo[4,5-h]quinazolin-8-yl)-amine] | 0.075 | 2.8 ± 0.6 | 0.049 ± 0.002 | 0.014 ± 0.006 | 4.1 ± 1.7 | 0.058 ± 0.046 | 4.9 ± 3.4 | 4 ± 0.1 | 3.3 ± 0.3
6 | COc1ccc(Nc2ncc3c(n2)-c2sc(C)nc2CC3)cn1 [Cpd 8, (6-Methoxy-pyridin-3-yl)-(2-methyl-4,5-dihydro-thiazolo[4,5-h]quinazolin-8-yl)-amine] | 0.22 ± 0.19 | 2.3 ± 0.4 | 0.089 ± 0.016 | 0.014 ± 0.012 | 3.3 ± 1.6 | 0.23 ± 0.19 | 5 ± 2.7 | 4.7 ± 3.8 | 6 ± 5.1
7 | Cc1nc2c(s1)-c1nc(N(C)c3cccc([N+](=O)[O-])c3)ncc1CC2 [Cpd 9, Methyl-(2-methyl-4,5-dihydro-thiazolo[4,5-h]quinazolin-8-yl)-(3-nitro-phenyl)-amine] | > 80 | 3.9 ± 1.4 | 1.18 ± 0.03 | 14 ± 6 | 39 ± 19 | 8 ± 2 | > 20 | > 20 | > 20
8 | Nc1nc2c(s1)-c1nc(Nc3ccccc3)ncc1CC2 [Cpd 13, N^8-Phenyl-4,5-dihydro-thiazolo[4,5-h]quinazoline-2,8-diamine] | 0.61 ± 0.09 | 2.5 ± 1 | 0.0007 | 0.92 ± 0.47 | 0.36 ± 0.14 | 1.9 ± 0.7 | – | – | –
9 | Cc1nc2ccc3cnc(N(C)c4cccc([N+](=O)[O-])c4)nc3c2s1 [Cpd 10, Methyl-(2-methyl-thiazolo[4,5-h]quinazolin-8-yl)-(3-nitro-phenyl)-amine] | > 40 | 44 ± 11 | 3.2 ± 0.8 | 47 ± 20 | > 100 | 22 ± 8 | > 40 | > 40 | > 40

The next lines start with results.

Row | IC50 (Cyclin D1 - CDK4) [µM] | IC50 (Cyclin H - CDK7) [µM] | IC50 (Cyclin E - CDK2) [µM] | IC50 (Cyclin A - CDK2) [µM] | IC50 (Cyclin T - CDK9) [µM] | IC50 (Cyclin B - CDK1) [µM] | SMILES | IC50 (Saos-2) [µM] | IC50 (HT29) [µM] | IC50 (A549) [µM]
10 | 0.07 ± 0.02 | 0.13 ± 0.03 | 0.021 ± 0.001 | 0.058 ± 0.007 | 2.1 ± 0.7 | 7.5 ± 6.3 | Cc1nc2c(s1)-c1nc(Nc3ccc(N(C)C)cc3)ncc1CC2 [Cpd 6, N,N-Dimethyl-N′-(2-methyl-4,5-dihydro-thiazolo[4,5-h]quinazolin-8-yl)-benzene-1,4-diamine] | 5.3 ± 1.9 | 3.6 ± 1 | 8 ± 4
11 | 9.2 ± 1.3 | > 100 | 0.4 ± 0.1 | 4.2 ± 0.9 | 6.1 | 2.8 ± 0.7 | Cc1nc2c(s1)-c1nc(Nc3ccc(C(F)(F)F)cc3)ncc1CC2 [Cpd 2, (2-Methyl-4,5-dihydro-thiazolo[4,5-h]quinazolin-8-yl)-(4-trifluoromethyl-phenyl)-amine] | 4.4 ± 1.8 | 7.1 ± 1.3 | 2.8 ± 1
12 | 1 | 0.64 ± 0.23 | 0.002 ± 0.001 | 0.009 ± 0.003 | 1.6 ± 0.8 | 0.6 ± 0.12 | Cc1nc2c(s1)-c1nc(Nc3ccc(O)cc3)ncc1CC2 [Cpd 5, 4-(2-Methyl-4,5-dihydro-thiazolo[4,5-h]quinazolin-8-ylamino)-phenol] | 6.6 ± 5.8 | 9.9 ± 1.2 | 4.2 ± 1.2
13 | 1.68 ± 0.04 | > 20 | 0.001 ± 0.001 | 1.7 | – | 2.2 ± 0.7 | Cc1nc2c(s1)-c1nc(Nc3ccccc3)ncc1CC2 [Cpd 11, (2-Methyl-4,5-dihydro-thiazolo[4,5-h]quinazolin-8-yl)-phenyl-amine] | – | – | –
14 | 1.1 ± 0.7 | 0.11 ± 0.03 | 0.02 ± 0.01 | 0.002 ± 0.001 | 0.013 | 1.1 ± 0.4 | Cc1nc2c(s1)-c1nc(Nc3cccc(O)c3)ncc1CC2 [Cpd 3, 3-(2-Methyl-4,5-dihydro-thiazolo[4,5-h]quinazolin-8-ylamino)-phenol] | 2.3 ± 1.8 | 9.4 ± 5.6 | 2.5 ± 1.2
